Measurements taken from patent US8604044B2, “Quinazoline based EGFR inhibitors containing a zinc binding moiety” (Curis, Inc., priority 2006, dated 2013).

Columns and labels:
HDAC = HDAC fluorimetric assay (HDAC enzymatic activity, HeLa nuclear extract); assay type: biochemical; details: for IC50: HeLa nuclear extract, read-out: HDAC IC50 grading
Method: HDAC inhibitors were screened using an HDAC fluorimetric assay kit (AK-500, Biomol, Plymouth Meeting, Pa.).
Each assay was setup as follows: Defrosted all kit components and kept on ice until use. […] Prepared dilutions of Trichostatin A (TSA, positive control) and tested compounds in assay buffer (5× of final concentration). Diluted Fluor de Lys™ Substrate in assay buffer to 100 uM (50 fold=2× final). Diluted Fluor de Lys™ developer concentrate 20-fold (e.g. 50 μl plus 950 μl Assay Buffer) in cold assay buffer. Second, diluted the 0.2 mM Trichostatin A 100-fold in the 1× Developer (e.g. 10 μl in 1 ml; final Trichostatin A concentration in the 1× Developer=2 μM; final concentration after addition to HDAC/Substrate reaction=1 μM). Added Assay buffer, diluted trichostatin A or test inhibitor to appropriate wells of the microtiter plate. Added diluted HeLa extract or other HDAC sample to all wells except for negative controls.

human EGFR = molecular target: T1, human EGFR (Homo sapiens, UniProt P00533); assay: HTScan EGF Receptor Kinase Assay; assay type: biochemical; details: for IC50: read-out: EGFR IC50 grading
T1 construct: human EGFR (His672-Ala1210); purchased Cell Signaling Technologies; host or cells: baculovirus expression system
T1 sequence (P00533 672-1210): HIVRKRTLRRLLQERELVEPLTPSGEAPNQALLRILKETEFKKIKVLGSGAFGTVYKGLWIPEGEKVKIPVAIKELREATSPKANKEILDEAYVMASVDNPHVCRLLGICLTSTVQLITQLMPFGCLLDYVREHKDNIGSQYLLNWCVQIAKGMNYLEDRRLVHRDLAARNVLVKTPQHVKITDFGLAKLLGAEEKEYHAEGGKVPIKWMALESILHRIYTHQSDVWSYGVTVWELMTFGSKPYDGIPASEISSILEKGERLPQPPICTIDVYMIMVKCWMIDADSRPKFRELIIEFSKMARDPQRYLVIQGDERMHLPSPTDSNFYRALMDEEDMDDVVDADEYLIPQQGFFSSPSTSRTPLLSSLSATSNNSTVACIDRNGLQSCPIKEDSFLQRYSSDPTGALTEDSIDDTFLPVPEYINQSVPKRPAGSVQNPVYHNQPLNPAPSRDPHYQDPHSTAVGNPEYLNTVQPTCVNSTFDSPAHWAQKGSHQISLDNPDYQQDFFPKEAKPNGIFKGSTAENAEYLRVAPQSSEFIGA
Method: The ability of compounds to inhibit receptor kinase (EGFR) activity was assayed using HTScan™ EGF Receptor Kinase Assay Kits (Cell Signaling Technologies, Danvers, Mass.). […] The protein was purified by one-step affinity chromatography using glutathione-agarose.
Immediately transfer enzyme from −80° C. to ice. Allowed enzyme to thaw on ice. […] Returned immediately to ice. […] Incubated reaction plate at room temperature for 30 minutes. […] Added 100 μl/well primary antibody. Incubated at room temperature for 60 minutes. […] Added 100 μl/well diluted antibody. Incubated at room temperature for 30 minutes. […] Incubated at room temperature for 5 minutes.

HER2 = molecular target: T2, HER2 (Homo sapiens, UniProt P04626); assay: Radioisotope assay for HER2; assay type: biochemical; details: read-out: HER2/ErB2 IC50 grading
T2 construct: human HER2 amino acids 679-1255; host or cells: baculovirus in Sf9 insect cells
T2 sequence (P04626 679-1255): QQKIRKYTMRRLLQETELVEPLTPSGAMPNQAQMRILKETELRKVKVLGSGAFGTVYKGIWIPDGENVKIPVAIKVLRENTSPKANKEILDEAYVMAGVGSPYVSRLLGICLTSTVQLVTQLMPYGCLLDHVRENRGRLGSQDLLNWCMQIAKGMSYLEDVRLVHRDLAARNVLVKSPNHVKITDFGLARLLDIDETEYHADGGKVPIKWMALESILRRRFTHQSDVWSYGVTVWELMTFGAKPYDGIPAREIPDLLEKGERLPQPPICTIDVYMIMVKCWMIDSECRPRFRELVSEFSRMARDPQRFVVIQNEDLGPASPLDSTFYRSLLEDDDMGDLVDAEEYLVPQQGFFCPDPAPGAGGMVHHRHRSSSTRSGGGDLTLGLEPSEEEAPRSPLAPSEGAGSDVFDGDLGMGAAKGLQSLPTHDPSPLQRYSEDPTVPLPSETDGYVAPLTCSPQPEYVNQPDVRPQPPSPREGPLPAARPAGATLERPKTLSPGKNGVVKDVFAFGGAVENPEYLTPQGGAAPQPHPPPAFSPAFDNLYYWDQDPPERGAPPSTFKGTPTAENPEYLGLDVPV
Method: Protocol for Radioisotope Assay for HER2
10 nM HER2 and 0.1 mg/ml polyEY were placed in the reaction buffer and 2 mM MnCl2, 1 μM ATP and 1% DMSO final were added. The reaction mixture was incubated for 2 hours at room temperature.
MW=91.6 kDa. […] Enzyme is in 25 mM Tris-HCl, pH 8.0, 100 mM NaCl, 0.05% Tween-20, 50% glycerol, 10 mM reduced glutathione, and 3 mM DTT.

Row | IC50 (HDAC) [nM] | melting point [°C] | IC50 (human EGFR) [nM] | Structure (SMILES) | activity in HDAC enzyme assay compared with SAHA (HDAC; FIG. 1) | activity in EFGR enzyme assay compared with erlotinib (human EGFR; FIG. 1) | IC50 (HER2) [nM]
1 | > 10000 | – | – | C#Cc1cccc(Nc2ncnc3cc(OC)c(OCC(=O)NO)cc23)c1 [Compound 7, 2-(4-(3-ethynylphenylamino)-7-methoxyquinazolin-6-yloxy)-N-hydroxyacetamide] | – | – | < 100
2 | < 100 | 128 to 132 | – | O=C(CCCOc1ccc2ncnc(Nc3ccc(F)c(Cl)c3)c2c1)NO [Compound 15, 4-(4-(3-chloro-4-fluorophenylamino)quinazolin-6-yloxy)-N-Hydroxybutanamide] | – | – | –
3 | 100 to 1000 | 85.9 | – | O=C(CCCCOc1ccc2ncnc(Nc3ccc(F)c(Cl)c3)c2c1)NO [Compound 16, 5-(4-(3-chloro-4-fluorophenylamino)quinazolin-6-yloxy)-N-hydroxypentanamide] | – | – | –
4 | > 10000 | 189 to 191 | – | C#Cc1cccc(Nc2ncnc3ccc(OCC(=O)NO)cc23)c1 [Compound 19, 2-(4-(3-ethynylphenylamino)quinazolin-6-yloxy)-N-hydroxyacetamide] | – | – | –
5 | 1000 to 10000 | 182 to 186 | – | C#Cc1cccc(Nc2ncnc3ccc(OCCCC(=O)NO)cc23)c1 [Compound 21, 4-(4-(3-ethynylphenylamino)quinazolin-6-yloxy)-N-hydroxybutanamide] | – | – | –
6 | < 100 | 176 to 182 | – | C#Cc1cccc(Nc2ncnc3ccc(OCCCCCC(=O)NO)cc23)c1 [Compound 23, 6-(4-(3-ethynylphenylamino)quinazolin-6-yloxy)-N-hydroxyhexanamide] | – | – | –
7 | < 100 | – | – | C#Cc1cccc(Nc2ncnc3cc(OC)c(NC(=O)CCCCCCC(=O)NO)cc23)c1 [Compound 44, N^1-(4-(3-ethynylphenylamino)-7-methoxyquinazolin-6-yl)-N^8-hydroxyoctanediamide] | – | – | 100 to 1000
8 | < 100 | – | – | C#Cc1cc(Nc2ncnc3cc(OC)c(OCCCCCCC(=O)NO)cc23)ccc1F [Compound 75, 7-(4-(3-ethynyl-4-fluorophenylamino)-7-methoxyquinazolin-6-yloxy)-N-hydroxyheptanamide] | – | – | 100 to 1000
9 | < 100 | – | – | C#Cc1cc(Nc2ncnc3cc(OCCOC)c(OCCCCCCC(=O)NO)cc23)ccc1F [Compound 76] | – | – | 100 to 1000
10 | < 100 | – | < 100 | C#Cc1cccc(Nc2ncnc3cc(OCCCCCCC(=O)NO)c(OCCOC)cc23)c1 [Compound 168, 7-(4-(3-ethynylphenylamino)-6-(2-methoxyethoxy)quinazolin-7-yloxy)-N-hydroxyheptanamide] | – | – | 100 to 1000
11 | < 100 | – | < 100 | O=C(CCCCCCOc1ccc2ncnc(Nc3ccc(OCc4cccc(F)c4)c(Cl)c3)c2c1)NO [Compound 198, 7-(4-(3-chloro-4-(3-fluorobenzyloxy)phenylamino)quinazolin-6-yloxy)-N-hydroxyheptanamide] | – | – | < 100
12 | < 100 | – | < 100 | C#Cc1cc(Nc2ncnc3cc(OC)c(OCCCCCCC(=O)NO)cc23)ccc1O [Compound 206] | – | – | < 100
13 | – | – | < 100 | C#Cc1cccc(Nc2ncnc3cc(O)c(OCCCCCCC(=O)NO)cc23)c1 [Compound 207] | – | – | < 100

The next lines start with the compound.

Row | Structure (SMILES) | IC50 (HDAC) [nM] | melting point [°C] | IC50 (human EGFR) [nM] | activity in HDAC enzyme assay compared with SAHA (HDAC; FIG. 1) | activity in EFGR enzyme assay compared with erlotinib (human EGFR; FIG. 1) | IC50 (HER2) [nM]
14 | COc1cc2ncnc(Nc3ccc(F)c(Cl)c3)c2cc1OCCCCCCC(=O)NO [Compound 6, 7-(4-(3-Chloro-4-fluorophenylamino)-7-methoxyquinazolin-6-yloxy)-N-hydroxyheptanamide] | < 100 | – | – | more active | more active | < 100
15 | C#Cc1cccc(Nc2ncnc3cc(OC)c(OCCCCCC(=O)NO)cc23)c1 [Compound 11, 6-(4-(3-ethynylphenylamino)-7-methoxyquinazolin-6-yloxy)-N-hydroxyhexanamide] | < 100 | – | – | – | – | 100 to 1000
16 | O=C(CCCCCCOc1ccc2ncnc(Nc3ccc(F)c(Cl)c3)c2c1)NO [Compound 18, 7-(4-(3-chloro-4-fluorophenylamino)quinazolin-6-yloxy)-N-hydroxyheptanamide] | < 100 | – | – | – | – | 100 to 1000
17 | COCCOc1cc2ncnc(Nc3ccc(F)c(Cl)c3)c2cc1OCCCCCCC(=O)NO [Compound 30, 7-(4-(3-Chloro-4-fluorophenylamino)-7-(2-methoxyethoxy)quinazolin-6-yloxy)-N-hydroxyheptanamide] | < 100 | – | – | – | – | 100 to 1000
18 | COc1cc2ncnc(Nc3ccc(F)c(Cl)c3)c2cc1NC(=O)CCCCCCC(=O)NO [Compound 40, N^1-(4-(3-chloro-4-fluorophenylamino)-7-methoxyquinazolin-6-yl)-N^8-hydroxyoctanediamide] | < 100 | – | – | – | – | 100 to 1000
19 | COc1cc2ncnc(N[C@H](C)c3ccccc3)c2cc1OCCCCCCC(=O)NO [Compound 79, (R)—N-hydroxy-7-(7-methoxy-4-(1-phenylethylamino)quinazolin-6-yloxy)heptanamide] | < 100 | – | – | – | – | 100 to 1000
20 | COc1cc2ncnc(N[C@H](C)c3ccc(F)cc3)c2cc1OCCCCCCC(=O)NO [Compound 81, (R)-7-(4-(1-(4-fluorophenyl)ethylamino)-7-methoxyquinazolin-6-yloxy)-N-hydroxyheptanamide] | 100 to 1000 | 118.2 to 144.3 | – | – | – | –
21 | COc1cc2ncnc(NCc3ccccc3)c2cc1OCCCCCCC(=O)NO [Compound 85, 7-(4-(Benzylamino)-7-methoxyquinazolin-6-yloxy)-N-hydroxyheptanamide] | < 100 | – | – | – | – | 100 to 1000
22 | COc1cc2ncnc(Nc3ccc(F)c(Cl)c3)c2cc1OCCCCCCN(O)C(N)=O [Compound 102] | – | – | < 100 | – | – | –
23 | COc1cc2ncnc(Nc3ccc(F)c(Cl)c3)c2cc1SCCCCC(=O)NO [Compound 151, 5-(4-(3-chloro-4-fluorophenylamino)-7-methoxyquinazolin-6-ylthio)-N-hydroxypentanamide] | – | – | < 100 | – | – | < 100
24 | COc1cc2ncnc(Nc3ccc(F)c(Cl)c3)c2cc1SCCCCCCC(=O)NO [Compound 155, 7-(4-(3-Chloro-4-fluorophenylamino)-7-methoxyquinazolin-6-ylthio)-N-hydroxyheptanamide] | – | – | < 100 | – | – | < 100
25 | COc1cc2c(Nc3ccc(F)c(Cl)c3)ncnc2cc1OCCCCCCC(=O)NO [Compound 161, 7-(4-(3-chloro-4-fluorophenylamino)-6-methoxyquinazolin-7-yloxy)-N-hydroxyheptanamide] | < 100 | – | – | – | – | 100 to 1000
26 | C#Cc1cccc(Nc2ncnc3cc(OCCCCCCC(=O)NO)c(OC)cc23)c1 [Compound 162, 7-(4-(3-ethynylphenylamino)-6-methoxyquinazolin-7-yloxy)-N-hydroxyheptanamide] | < 100 | – | < 100 | – | – | 100 to 1000
27 | COCCOc1cc2c(Nc3ccc(F)c(Cl)c3)ncnc2cc1OCCCCCCC(=O)NO [Compound 167, 7-(4-(3-chloro-4-fluorophenylamino)-6-(2-methoxyethoxy)quinazolin-7-yloxy)-N-hydroxyheptanamide] | < 100 | – | < 100 | – | – | 100 to 1000
28 | O=C(CCNCc1ccc(-c2ccc3ncnc(Nc4ccc(OCc5cccc(F)c5)c(Cl)c4)c3c2)o1)NO [Compound 174, 3-((5-(4-(3-Chloro-4-(3-fluorobenzyloxy)phenylamino)quinazolin-6-yl)furan-2-yl)methylamino)-N-hydroxypropanamide] | > 10000 | 170 | – | – | – | –
29 | O=C(CCCCCCNCc1ccc(-c2ccc3ncnc(Nc4ccc(OCc5cccc(F)c5)c(Cl)c4)c3c2)o1)NO [Compound 178, 7-((5-(4-(3-chloro-4-(3-fluorobenzyloxy)phenylamino)quinazolin-6-yl)furan-2-yl)methylamino)-N-hydroxyheptanamide] | 100 to 1000 | 120 | – | – | – | –
30 | COc1cc2ncnc(Nc3ccc(OCc4cccc(F)c4)c(Cl)c3)c2cc1OCCCCCCC(=O)NO [Compound 199, 7-(4-(3-chloro-4-(3-fluorobenzyloxy)phenylamino)-7-methoxyquinazolin-6-yloxy)-N-hydroxyheptanamide] | < 100 | – | < 100 | – | – | < 100
31 | COCCOc1cc2ncnc(Nc3ccc(OCc4cccc(F)c4)c(Cl)c3)c2cc1OCCCCCCC(=O)NO [Compound 200] | < 100 | – | < 100 | – | – | < 100
32 | O=C(CCCCCCCNCc1ccc(-c2ccc3ncnc(Nc4ccc(OCc5cccc(F)c5)c(Cl)c4)c3c2)o1)NO [Compound 201] | 100 to 1000 | – | < 100 | – | – | < 100
